The values below come from ChEMBL document CHEMBL1201862, “PubChem BioAssay data set” (2004).

Calls of active or inactive are those of the source.

Assay [1] can be described thus: decrease of insulin promoter-GFP reporter – imaging, high-content screening, mouse beta cells (AID 1628). In kind it is functional. To be noted: MIN6.
Assay [2] addresses Luciferin 4-monooxygenase (Photinus pyralis, UniProt P08659). In words: Counter Screen for Luciferase-based Assay Positives. [Related pubchem assays: 620, 618, 411 ]. Background: A counterscreen serves to expose hits that act by an unwanted route or on another target.
A short description of assay [3]: Luminescence Cell-Based Dose Response HTS to Identify Inhibitors of 5'UTR Stem-Loop Driven Prion Protein mRNA Translation in H4 Neuroglioblastoma Cells. [Related pubchem assays: 1827 (Project Summary), 1813 (Primary HTS)]. In kind it is functional.
Assay [4] can be described thus: MIN6 cell viability loss – mouse insulinoma, cytotoxicity control, dose response (AID 2122).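 Further: confirmatory high-throughput counterscreen run to flag cytotoxic compounds.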 In kind it is functional.
Assay [5] can be described thus: alpha-synuclein stem-loop luciferase translation blockers – H4 neuroglioma cells, luminescence, confirmation (AID 1988). In kind it is functional, cell-based.
The next assay concerns HT-1080. In words: HT1080 cell viability loss – fluorescence readout (AID 620). In kind it is functional, cell-based. The settings on record: Homo sapiens.
Another assay deals with CAAX prenyl protease 2 (Homo sapiens, UniProt Q9Y256). Put plainly: inhibition of Ras-converting CAAX protease Rce1 – biochemical, yeast membranes, quenched-peptide fluorescence, cherry-pick, dose response (AID 588849).
Assay [6] can be described thus: acridine orange displacement from DNA – biochemical, fluorescence polarization, cherry-pick, artefact control for RAD54 inhibitor project, dose response (AID 651673). In kind it is functional. (Polarisation of emitted light reports the rotation of a fluorescent probe.)
In assay [7] the target is T1, DNA repair and recombination protein RAD54-like (Homo sapiens, UniProt Q92698).
T1 sequence (Q92698 whole entry): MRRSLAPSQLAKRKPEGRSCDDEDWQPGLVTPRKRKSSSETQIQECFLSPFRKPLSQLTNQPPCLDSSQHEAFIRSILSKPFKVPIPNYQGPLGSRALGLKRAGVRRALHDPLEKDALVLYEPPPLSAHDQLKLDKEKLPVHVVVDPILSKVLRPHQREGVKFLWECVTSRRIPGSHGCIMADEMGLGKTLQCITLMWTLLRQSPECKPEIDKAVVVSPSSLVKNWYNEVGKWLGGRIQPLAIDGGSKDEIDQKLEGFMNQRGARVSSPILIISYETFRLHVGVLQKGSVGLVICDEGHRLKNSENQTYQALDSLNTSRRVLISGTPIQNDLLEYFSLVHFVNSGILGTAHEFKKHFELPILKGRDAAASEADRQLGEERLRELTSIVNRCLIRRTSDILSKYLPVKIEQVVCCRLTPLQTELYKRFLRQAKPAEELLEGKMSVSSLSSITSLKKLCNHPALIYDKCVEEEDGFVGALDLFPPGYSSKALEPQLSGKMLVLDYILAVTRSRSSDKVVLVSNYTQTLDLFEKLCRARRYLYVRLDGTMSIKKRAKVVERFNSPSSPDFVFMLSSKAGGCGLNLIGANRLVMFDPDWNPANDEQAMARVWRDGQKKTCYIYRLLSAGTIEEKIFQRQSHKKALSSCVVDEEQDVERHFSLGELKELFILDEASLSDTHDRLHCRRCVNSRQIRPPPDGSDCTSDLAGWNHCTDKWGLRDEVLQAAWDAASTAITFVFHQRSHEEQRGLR
In words: RAD54 Holliday junction migration blockers – biochemical, fluorescence, cherry-picked samples, dose series, confirmation (AID 651657). In kind it is functional.

Assay [8] has as its system HEK293. In words: cells. The settings on record: Homo sapiens.
For assay [9], the system named is HEK293. Put plainly: cells. The settings on record: Homo sapiens. This is another data set of the same source.
For assay [10], the target named is T2, Tyrosine-protein phosphatase non-receptor type 7 (Homo sapiens, UniProt P35236).
T2 sequence (P35236 whole entry): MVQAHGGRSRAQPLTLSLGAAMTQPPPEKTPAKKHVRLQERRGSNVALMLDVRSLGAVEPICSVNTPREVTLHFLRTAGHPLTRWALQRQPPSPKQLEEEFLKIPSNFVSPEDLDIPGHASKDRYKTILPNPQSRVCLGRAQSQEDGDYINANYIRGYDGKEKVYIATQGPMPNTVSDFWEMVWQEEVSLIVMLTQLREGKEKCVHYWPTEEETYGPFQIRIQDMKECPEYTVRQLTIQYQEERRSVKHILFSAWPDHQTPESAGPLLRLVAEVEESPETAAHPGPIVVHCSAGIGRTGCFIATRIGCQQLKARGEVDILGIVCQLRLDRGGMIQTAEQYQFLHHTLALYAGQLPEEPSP
In words: redox-active compounds inhibiting HePTP phosphatase – biochemical, fluorescence, mechanism study (AID 2068). In kind it is functional.

Assay [11] has as its target T3, Dual specificity protein phosphatase 6 (Rattus norvegicus, UniProt Q64346).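 Further: confirmatory in vitro dose-response testing of MKP-3 inhibition; recombinant His-tagged MKP-3 made in E. coli BL21 with OMFP substrate.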
T3 sequence (Q64346 whole entry): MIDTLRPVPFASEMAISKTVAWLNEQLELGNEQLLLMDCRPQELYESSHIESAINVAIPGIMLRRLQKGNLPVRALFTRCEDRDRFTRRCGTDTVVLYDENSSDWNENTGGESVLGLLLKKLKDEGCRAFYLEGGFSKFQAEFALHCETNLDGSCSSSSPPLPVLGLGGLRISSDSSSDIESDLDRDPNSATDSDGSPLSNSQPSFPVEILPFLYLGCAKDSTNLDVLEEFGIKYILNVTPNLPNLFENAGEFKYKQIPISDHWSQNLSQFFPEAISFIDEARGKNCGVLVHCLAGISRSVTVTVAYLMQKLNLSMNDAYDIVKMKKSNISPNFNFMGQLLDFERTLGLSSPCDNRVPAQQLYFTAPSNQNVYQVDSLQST
In kind it is functional.

Assay [12] can be described thus: HEK-293T cell viability reduction – luminescence, B-cell screen hits, cytotoxicity control for BCR NF-kB inhibitor project, dose response (AID 489021).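 Further: HEK-293T cells carrying an NF-kB luciferase reporter; cells exposed to compound for about 14 hours before viability readout.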 In kind it is functional, cell-based.
The test system of assay [13] is HEK293. In words: HEK293T cell viability loss, resazurin readout – resazurin fluorescence, cytotoxicity control for NF-kB activator project, SAR follow-up (AID 493251). In kind it is functional, cell-based.
Another assay deals with Jurkat. In words: SAR Analysis of small molecule inhibitors of T-cell specific antigen receptor-induced NF-kB activation in a Jurkat cell line using a luminescence assay - Set 2. [Related pubchem assays (depositor defined):AID435003, AID435012, AID465]. The settings on record: Homo sapiens. In kind it is functional, cell-based.
The test system of assay [14] is HEK293. In words: SAR Analysis of small molecule inhibitors of T-cell specific antigen receptor-induced NF-kB activation in a HEK-293T cell line using a luminescence assay - Set 2. [Related pubchem assays (depositor defined):AID435003, AID435012, AID489026]. To be noted: Homo sapiens. In kind it is functional, cell-based.
Assay [15] concerns Vero. Put plainly: cells. In kind it is functional, cell-based. To be noted: Chlorocebus sabaeus.
Assay [16] concerns Vero. In words: cells. In kind it is functional. To be noted: Chlorocebus sabaeus.

Sequence of Luciferin 4-monooxygenase (P08659 whole entry): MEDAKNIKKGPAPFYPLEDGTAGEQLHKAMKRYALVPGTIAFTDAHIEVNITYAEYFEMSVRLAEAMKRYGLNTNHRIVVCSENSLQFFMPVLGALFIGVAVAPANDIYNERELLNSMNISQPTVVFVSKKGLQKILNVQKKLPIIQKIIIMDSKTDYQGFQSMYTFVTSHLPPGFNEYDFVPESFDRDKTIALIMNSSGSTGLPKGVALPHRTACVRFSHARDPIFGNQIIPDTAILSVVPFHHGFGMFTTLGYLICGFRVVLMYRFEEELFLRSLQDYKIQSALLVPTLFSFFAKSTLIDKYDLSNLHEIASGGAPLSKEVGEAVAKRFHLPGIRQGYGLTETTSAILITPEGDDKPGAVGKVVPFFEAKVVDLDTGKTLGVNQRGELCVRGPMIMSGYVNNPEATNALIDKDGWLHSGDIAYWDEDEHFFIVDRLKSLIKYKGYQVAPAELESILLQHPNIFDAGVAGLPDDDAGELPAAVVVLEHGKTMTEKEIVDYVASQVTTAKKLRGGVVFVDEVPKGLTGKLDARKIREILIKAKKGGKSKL
Sequence of CAAX prenyl protease 2 (Q9Y256 whole entry): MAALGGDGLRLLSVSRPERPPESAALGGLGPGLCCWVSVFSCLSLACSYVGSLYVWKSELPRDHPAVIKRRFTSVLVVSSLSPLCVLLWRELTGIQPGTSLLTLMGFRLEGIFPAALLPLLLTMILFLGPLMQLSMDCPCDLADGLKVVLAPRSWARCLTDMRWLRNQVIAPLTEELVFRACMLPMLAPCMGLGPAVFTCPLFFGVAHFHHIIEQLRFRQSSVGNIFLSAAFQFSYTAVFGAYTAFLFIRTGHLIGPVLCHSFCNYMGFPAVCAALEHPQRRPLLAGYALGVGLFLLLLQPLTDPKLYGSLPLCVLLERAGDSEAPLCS

For orientation: IC50 means the midpoint of a concentration-inhibition curve. A word on the EC50: it is the concentration giving half of the maximal effect. A word on the AC50: it is the concentration at which the activity in the assay is half-maximal. In the case of `Nc1cccc2nc3ccccc3cc12`, the IC50 in assay [1] is 3.72 µM (active); in assay [4] it was 4.9 µM (active). Further, the EC50 in [2] was 0.95 µM (active); in assay [3], 7.26 µM (active); in assay [5] it was > 120 µM (not active); with HT-1080, 22.8 µM (active); in the assay on HEK293 [8], > 6.63 µM (active); in the assay on HEK293 [9], > 59.7 µM (inactive). Further, the AC50 was 5.07 µM (active) on CAAX prenyl protease 2, 54 µM (active) in assay [6] and 4.75 µM (active) in [7].

In the case of `COc1cc(C(=S)NC2CCCC2)ccc1O`, the half-inhibitory concentration (IC50) in [10] is 2.58 µM (active); in assay [11], > 100 µM (inactive).

Turning to `CCNC(=O)CCc1nc(-c2ccc(C(C)(C)C)cc2)no1`, the IC50 in [12] is > 80 µM (inactive); in the assay on HEK293 [13] (Homo sapiens, HEK293), 76.1 µM (inactive); with HEK293 [13] (hek293), 79.3 µM (inactive); in the assay on Jurkat, > 79 µM (inactive); in the assay on HEK293 [14], 34 µM (inactive).

`CCCOc1ccc(C(=O)Nc2ccc(NC(=O)c3cc4ccccc4o3)cc2)cc1`: the IC50 in the assay on HEK293 [13] (Homo sapiens, HEK293) is > 80 µM (inactive); in the assay on Jurkat it was > 79 µM (inactive); in the assay with HEK293 [14] it was > 80 µM (inactive).

As usually defined, the CC50 is the concentration at which the toxic effect on the cells reaches its halfway point. Regarding `O=c1c2ccccc2nc(/C=C/c2cc(Br)ccc2O)n1CCCO`, the IC50 in the assay with Vero [15] is > 25 µM (active). The CC50 in the assay on Vero [16] was 22.8 µM (active).

Regarding `C/C(=N/OCO/N=C(/C)c1ccc(F)cc1)c1ccc(F)cc1`, the IC50 in the assay with Vero [15] was > 12.5 µM (active).
